Melting point and EC50 data for 11 molecules are collected here from US20220089609A1, “SUBSTITUTED QUINAZOLINONE DERIVATIVES AND THEIR USE AS POSITIVE ALLOSTERIC MODULATORS OF MGLUR4” (DOMAIN THERAPEUTICS, priority 2018, published 2022).

One series has as its target T1, human mGluR4 (hmGluR4) (Homo sapiens, UniProt Q14833).
T1 construct: expressed in transfected cells; host or cells: HEK-293 cells, transient co-transfection by electroporation
The experiment in a line: Calcium assay EC50 determination, positive allosteric modulator activity on hmGluR4 transiently over-expressed in HEK-293 cells. In kind it is cell-based. Particulars: PAM mode with EC20 glutamate; hmGluR4 in HEK-293 cells; intracellular calcium (Fluo4AM); read-out: mGluR4 positive allosteric modulator activity, half maximal effective concentration (EC50). In a few lines: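 HEK-293 cells transiently co-transfected with hmGluR4, chimeric G protein and glutamate transporters; Fluo4AM calcium read (ex 485/em 525 nm) on FLIPR Tetra. Compound alone 10 min for agonism, then EC20 glutamate with 3 min recording for PAM activity, versus buffer or EC20 glutamate basal.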
A general note: Calcium assays in cells follow changes in intracellular calcium, usually with a dye or a luminescent sensor.

T1 sequence (Q14833 33-912): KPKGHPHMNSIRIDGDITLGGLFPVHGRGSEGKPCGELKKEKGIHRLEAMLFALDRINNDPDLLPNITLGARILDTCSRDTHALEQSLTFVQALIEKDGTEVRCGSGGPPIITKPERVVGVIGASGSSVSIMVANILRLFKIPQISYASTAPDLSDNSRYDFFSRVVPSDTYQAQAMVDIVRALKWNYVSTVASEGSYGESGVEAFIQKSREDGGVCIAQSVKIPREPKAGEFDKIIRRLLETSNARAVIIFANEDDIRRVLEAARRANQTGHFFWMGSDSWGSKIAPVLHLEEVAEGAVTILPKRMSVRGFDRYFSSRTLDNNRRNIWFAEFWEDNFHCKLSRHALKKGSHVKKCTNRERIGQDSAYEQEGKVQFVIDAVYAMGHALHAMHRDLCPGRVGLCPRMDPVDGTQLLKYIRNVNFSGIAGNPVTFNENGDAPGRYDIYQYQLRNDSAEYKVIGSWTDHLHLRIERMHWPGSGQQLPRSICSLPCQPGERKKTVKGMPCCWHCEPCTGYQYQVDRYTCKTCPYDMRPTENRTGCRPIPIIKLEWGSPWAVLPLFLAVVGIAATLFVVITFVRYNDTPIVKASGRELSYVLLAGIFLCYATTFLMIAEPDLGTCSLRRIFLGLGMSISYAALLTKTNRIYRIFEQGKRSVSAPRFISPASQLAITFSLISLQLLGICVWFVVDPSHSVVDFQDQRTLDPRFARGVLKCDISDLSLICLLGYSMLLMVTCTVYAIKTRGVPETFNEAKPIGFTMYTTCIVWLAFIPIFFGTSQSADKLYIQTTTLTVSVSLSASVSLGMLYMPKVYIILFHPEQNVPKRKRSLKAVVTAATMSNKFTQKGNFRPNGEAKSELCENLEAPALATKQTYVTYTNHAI

The term melting point denotes the temperature of the solid-liquid transition. As to `Cc1cc(O[C@@H](C)C2CCOCC2)cc2c(=O)[nH]c(-c3cc4ccsc4cn3)nc12` [Compound 110-S, S-8-Methyl-6-[1-(tetrahydro-pyran-4-yl)-ethoxy]-2-thieno[2,3-c]pyridin-5-yl-3H-quinazolin-4-one], the melting point lay within 150 to 180 °C. In addition, the EC50 at human mGluR4 (hmGluR4) was no more than 100 nM.

With `Cc1cc(OCC2(F)CCOC2)cc2c(=O)[nH]c(-c3cc(C(F)(F)F)ccn3)nc12` (stereo not shown) [Compound 112, 6-[(3-fluorotetrahydrofuran-3-yl)methoxy]-8-methyl-2-[4-(trifluoromethyl)-2-pyridyl]-3H-quinazolin-4-one], the melting point was 188 to 195 °C. The EC50 on human mGluR4 (hmGluR4) is no more than 100 nM.

`Cc1cc(O[C@H]2CCN(C(=O)OCc3ccccc3)C2)cc2c(=O)[nH]c(-c3cc4sccc4cn3)nc12` [Compound 141, Benzyl (3S)-3-[(8-methyl-4-oxo-2-thieno[3,2-c]pyridin-6-yl-3H-quinazolin-6-yl)oxy]pyrrolidine-1-carboxylate] returned a melting point of 224 to 227 °C. Further, on human mGluR4 (hmGluR4), the EC50 is 100 to 1000 nM.

In the case of `COC1CCN(CCc2cc(C)c3nc(-c4cc(C(F)(F)F)ccn4)[nH]c(=O)c3c2)CC1.Cl` [Compound 166, 6-(2-(4-methoxypiperidin-1-yl)ethyl)-8-methyl-2-(4-(trifluoromethyl)pyridin-2-yl)quinazolin-4(3H)-one hydrochloride], the melting point was greater than 250 °C. In addition, the EC50 on human mGluR4 (hmGluR4) fell in the range of 100 to 1000 nM.

As to `CC(=O)N1CCC(COc2ccc3nc(-c4cc5ccsc5cn4)[nH]c(=O)c3c2)CC1` [Compound 47, 6-(1-Acetyl-piperidin-4-ylmethoxy)-2-thieno[2,3-c]pyridin-5-yl-3H-quinazolin-4-one], the melting point is greater than 250 °C. Further, at human mGluR4 (hmGluR4), the EC50 is 100 to 1000 nM.

`Cc1cc(OC2CCC(=O)N(C)C2)cc2c(=O)[nH]c(-c3cc4cccn4cn3)nc12` (stereo not shown) [Compound 118, 8-Methyl-6-[(1-methyl-6-oxo-3-piperidyl)oxy]-2-pyrrolo[1,2-c]pyrimidin-3-yl-3H-quinazolin-4-one] displayed a melting point of 220 to 230 °C. The EC50 on human mGluR4 (hmGluR4) is no more than 100 nM.

With `Cc1cc(OCC2CCN(C)C(=O)C2)cc2c(=O)[nH]c(-c3cc4ccsc4cn3)nc12` (stereo not shown) [Compound 130, 8-Methyl-6-(1-methyl-2-oxo-piperidin-4-ylmethoxy)-2-thieno[2,3-c]pyridin-5-yl-3H-quinazolin-4-one], the melting point was greater than 250 °C. Further, the EC50 at human mGluR4 (hmGluR4) is no more than 100 nM.

Consider `Cl.O=c1[nH]c(-c2cc(C(F)(F)F)ccn2)nc2c(Br)cc(CCN3CCOCC3)cc12` [Compound 159, 8-Bromo-6-(2-morpholinoethyl)-2-(4-(trifluoromethyl)pyridin-2-yl)quinazolin-4(3H)-one hydrochloride], for which the melting point was greater than 250 °C. Besides, the EC50 at human mGluR4 (hmGluR4) is no more than 100 nM.

Turning to `CS(=O)(=O)c1ccc(CCCOc2ccc3nc(-c4cc5ccsc5cn4)[nH]c(=O)c3c2)cc1` [Compound 60, 6-[3-(4-Methanesulfonyl-phenyl)-propoxy]-2-thieno[2,3-c]pyridin-5-yl-3H-quinazolin-4-one], the melting point is 236 to 237 °C. At human mGluR4 (hmGluR4), the EC50 fell in the range of 100 to 1000 nM.

As for `Cc1cc(CCN2CCC(F)(F)CC2)cc2c(=O)[nH]c(-c3cc(C(F)(F)F)ccn3)nc12.Cl` [Compound 165, 6-(2-(4,4-difluoropiperidin-1-yl)ethyl)-8-methyl-2-(4-(trifluoromethyl)pyridin-2-yl)quinazolin-4(3H)-one hydrochloride], the melting point lay in the range of 240 to 250 °C. The EC50 at human mGluR4 (hmGluR4) lay in the range of 100 to 1000 nM.

Regarding `Cc1cc(CCN2CCC(O)CC2)cc2c(=O)[nH]c(-c3cc(C(F)(F)F)ccn3)nc12.Cl` [Compound 164, 6-(2-(4-hydroxypiperidin-1-yl)ethyl)-8-methyl-2-(4-(trifluoromethyl)pyridin-2-yl)quinazolin-4(3H)-one hydrochloride], the melting point fell in the range of 115 to 125 °C. Further, the EC50 at human mGluR4 (hmGluR4) was in the range of 100 to 1000 nM.
